Measured values taken from US8518942B2, “Caspase inhibitors and uses thereof” (Buck Institute for Research on Aging, priority 2008, dated 2013).

Experiments:
Caspase 3 [1] = molecular target: T1, Caspase 3 (Homo sapiens, UniProt P42574); test: Irreversible inhibitor kinetic assay (progress curve), caspase-3, substrate Ac-DEVD-AMC; assay type: biochemical; design: gift: Guy Salvesen's laboratory, Burnham Institute (La Jolla, Calif.); settings: casp-3; duplicate, SD included
T1 sequence (P42574 29-175 limits assumed): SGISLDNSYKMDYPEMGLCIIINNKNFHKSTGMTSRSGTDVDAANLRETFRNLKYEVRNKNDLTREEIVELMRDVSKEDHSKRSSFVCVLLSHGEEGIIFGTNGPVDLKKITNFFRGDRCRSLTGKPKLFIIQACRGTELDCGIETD
T1 sequence (P42574 176-277 limits assumed): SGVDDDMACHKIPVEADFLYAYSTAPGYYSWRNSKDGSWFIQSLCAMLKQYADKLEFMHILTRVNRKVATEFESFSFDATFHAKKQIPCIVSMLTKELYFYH
Description: Caspases-3, -6, -7, -8, and -9 were provided by Guy Salvesen's laboratory at the Burnham Institute (La Jolla, Calif.). Caspase-1 was purchased from EMD Biosciences (San Diego, Calif.) and Caspase-2 was purchased from Biomol International (Plymouth Meeting, Pa.). Caspase substrates Ac-DEVD-AMC, Ac-VDVAD-AFC, and Ac-LEHD-AFC were purchased from EMD Biosciences (San Diego, Calif.) and Ac-VDVAD-AMC was purchased from Biomol International (Plymouth Meeting, Pa.). The proteolytic cleavage of N-acyl aminocoumarins by caspases was conducted in Dynatech Microfluor fluorescence 96-well microtiter plates, and readings were taken on a Molecular Devices Spectra Max Gemini XS instrument. The excitation wavelength was 370 nm and the emission wavelength was 455 nm for AMCA substrates, the excitation wavelength was 355 nm and the emission wavelength was 450 nm for peptidyl AMC substrates, and the excitation wavelength was 430 nm and the emission wavelength was 535 nm for peptidyl AFC substrates.
The kinact/Ki for inhibitors were determined under pseudo-first order conditions using the progress curve method (Eckici et al. (2006) J. Med. Chem., 49: 5728-5749; Bieth (1995) Meth. Enzymol., 248: 59-84). Assay wells contained a mixture of inhibitor and AMC or AFC substrate in buffer. Aliquots of caspase were added to each well to initiate the assay. Hydrolysis of the AMC or AFC substrate was monitored fluorometrically for 45 min. To determine the inhibition parameters, time points for which the control ([I]=0) was linear were used. For each inhibitor, a kobs was calculated for at least four different concentrations of inhibitors via a nonlinear regression of the data according to the equation P=(vi/kobs)[1−exp(−kobst) (where product formation=P, […], and the first-order rate constant=kobs). If kobs varied linearly with [I], then the association constant kass was determined by linear regression analysis using kobs=(kass[I])/(1+[S]/Km) where [S] is the concentration of the substrate. […] Inhibition was measured in duplicate and the average of is reported. […]

Caspase 3 [2] = molecular target: T1, Caspase 3; test: Blots of full-length huntingtin (23Q & 148Q) treated with Caspase 3 plus inhibitor; assay type: biochemical; settings: for Proteolysis of Htt at amino acid 513 (caspase-3 site): 1-100 nM; for Inhibition of Caspase 3 cleavage of full-length huntingtin (blot): 23Q & 148Q, at 0.1 μM, 1.0 μM and 10 μM; for Blocking the cleavage of Htt at amino acid 513 mediated by caspase-3: conclusion

| kinact/Ki (Caspase 3 [1]) | Proteolysis of Htt at amino acid 513 (caspase-3 site) (Caspase 3 [2]) | Inhibition of Caspase 3 cleavage of full-length huntingtin (blot) (Caspase 3 [2]) | Blocking the cleavage of Htt at amino acid 513 mediated by caspase-3 (Caspase 3 [2]) | Compound |
| --- | --- | --- | --- | --- |
| 47,000 ± 1,400 s^−1/M^−1 | blocked | inhibition | affective at blocking | C[C@@](NS(=O)(=O)Cc1ccccc1)(c1cn([C@@H](CC(=O)O)C(=O)COc2c(F)c(F)cc(F)c2F)nn1)C1CCCCC1 [MJL-001i] |
| 81,700 ± 6,900 s^−1/M^−1 | blocked | inhibition | affective at blocking | C[C@@](NC(=O)CCCC(=O)O)(c1cn([C@@H](CC(=O)O)C(=O)COc2c(F)c(F)cc(F)c2F)nn1)C1CCCCC1 [MJL-002i] |
| 29,850 ± 850 s^−1/M^−1 | blocked | inhibition | affective at blocking | C[C@@](NC(=O)Cc1ccccc1)(c1cn([C@@H](CC(=O)O)C(=O)COc2c(F)c(F)cc(F)c2F)nn1)C1CCCCC1 [MJL-003i] |
